Laboratory results from the supplement of paper PMC10883282.
Counter-ions that a name gives are not always drawn. ± gives the standard deviation of the averaged measurements.

System: HT1080
Assay: relative viability vs DMSO control (72 h) (fraction); higher = more viable cells
Summary of the method: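 Sarcoma cell lines were seeded in 384-well plates at densities chosen for 80–90% confluence, then 24 h later given 2.5 µl of serially diluted compound drawn from source plates spanning 10 mM to 0.0002 mM. They were held 72 h at 37 °C, 5% CO2, with 0.1% DMSO vehicle and a 5 µM positive control included. Relative viability was read with ATPLite as percent growth and averaged over up to triplicate wells. Rescaling placed full at 1 and none at 0.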

SMILES	relative viability (0.00017 µM)	relative viability (0.00051 µM)	relative viability (0.00152 µM)	relative viability (0.00457 µM)	relative viability (0.01372 µM)	relative viability (0.04115 µM)	relative viability (0.1235 µM)	relative viability (0.3704 µM)	relative viability (1.111 µM)	relative viability (3.333 µM)	relative viability (10 µM)
Cc1cnc(Nc2ccc(OCCN3CCCC3)cc2)nc1Nc1cccc(S(=O)(=O)NC(C)(C)C)c1 [Fedratinib]	1.11 ± 0.027	1.03 ± 0.056	1.08 ± 0.0082	1.06 ± 0.032	1.07 ± 0.044	1.05 ± 0.044	1.04 ± 0.009	1.03 ± 0.022	0.813 ± 0.015	0.391 ± 0.014	0.0298 ± 0.0037
C=CC(=O)N1CCC([C@@H]2CCNc3c(C(N)=O)c(-c4ccc(Oc5ccccc5)cc4)nn32)CC1 [Zanubrutinib]	1.04 ± 0.022	1.05 ± 0.022	1.04 ± 0.04	1.03 ± 0.024	1.03 ± 0.026	1.03 ± 0.031	1.03 ± 0.028	1.05 ± 0.071	1.017 ± 0.0087	1.02 ± 0.033	1.02 ± 0.026
CN1CCC(COc2cnc(-c3cccc(Cn4nc(-c5cccc(C#N)c5)ccc4=O)c3)nc2)CC1 [Tepotinib]	1.1 ± 0.066	1.09 ± 0.025	1.12 ± 0.013	1.081 ± 0.0059	1.092 ± 0.0041	1.07 ± 0.016	1.07 ± 0.043	1.07 ± 0.059	1.04 ± 0.034	1.032 ± 0.0023	0.8618 ± 0.0058
Cc1nc(NC(=O)N2CCC[C@H]2C(N)=O)sc1-c1ccnc(C(C)(C)C(F)(F)F)c1 [Alpelisib]	1.06 ± 0.032	1.05 ± 0.027	1.05 ± 0.022	1.08 ± 0.031	1.01 ± 0.014	1.04 ± 0.018	1 ± 0.023	1.02 ± 0.037	0.994 ± 0.03	0.977 ± 0.034	0.889 ± 0.016
CC[C@H](Nc1ncnc2[nH]cnc12)c1nc2cccc(F)c2c(=O)n1-c1ccccc1 [Idelalisib]	1.1 ± 0.032	1.1 ± 0.025	1.07 ± 0.017	1.12 ± 0.039	1.0913 ± 0.00051	1.12 ± 0.021	1.09 ± 0.038	1.12 ± 0.051	1.07 ± 0.027	1.08 ± 0.014	1.08 ± 0.04
COc1cccc2c1C(=O)c1c(O)c3c(c(O)c1C2=O)C[C@@](O)(C(=O)CO)C[C@@H]3O[C@H]1C[C@H](N)[C@H](O)[C@H](C)O1 [Doxorubicin Hydrochloride]	1.09 ± 0.015	1.071 ± 0.0078	1.04 ± 0.025	1.05 ± 0.024	0.97 ± 0.028	0.707 ± 0.01	0.5504 ± 0.0046	0.117 ± 0.0055	0.105 ± 0.0013	0.183 ± 0.0044	0.115 ± 0.0043
Cc1ccc(NC(=O)c2ccc(CN3CCN(C)CC3)cc2)cc1Nc1nc(-c2cccnc2)cs1 [Masitinib]	1.02 ± 0.029	1.06 ± 0.022	1.06 ± 0.0062	1.08 ± 0.033	1.05 ± 0.019	1.06 ± 0.021	1.03 ± 0.032	1.02 ± 0.044	0.89 ± 0.02	0.642 ± 0.06	0.177 ± 0.012
